Patent US20260335472A1, “MULTIFUNCTIONAL COMPOUND CORE FOR ACTIVE AGENTS AND USES THEREOF” (THE UNIVERSITY OF NORTH CAROLINA AT CHAPEL HILL, priority 2023, published 2026)

How the values were obtained:
PC3-PSMA model = assay: PET scan imaging, tumor uptake in rodents; assay type: in vivo, mouse
[1] = PET scan imaging, salivary gland uptake in non-human primate; assay type: in vivo; conditions: 24 hours post injection, relative to 64Cu-PSMA-617, FIG. 1 panel B
Experimental: (§1) Indeed, SGs uptake of ^64Cu-NOTA-UNC-PSMA2 is only 1/10th of ^64Cu-PSMA-617 at 24 h post-injection in the NHP study (FIG. 1, panel B).

tumor [2] = assay: Imaging, tumor uptake in non-human primate models; assay type: in vivo; conditions: non-human primate (NHP) models, times higher than PSMA-617
Experimental: as §1

[3] = SPECT/CT imaging, gland uptake in a human subject; assay type: in vivo
[4] = SPECT/CT imaging, SG uptake in rodent models; assay type: in vivo
tumor [5] = assay: PET scan imaging of 68Ga-PSMA-617 tumor uptake; assay type: in vivo; conditions: rodent models, PET scan image of a mouse, FIG. 2 panel A
tumor [6] = assay: PET scan imaging, tumor uptake of bifunctional (Sar cage) core compound; assay type: in vivo; conditions: mouse, FIG. 5

O=C(O)CC[C@H](NC(=O)N[C@@H](CCCCNC(=O)[C@H](Cc1ccc2ccccc2c1)NC(=O)C1CCC(CNC(=O)CSCCS(=O)(=O)CCOCCn2c(=O)n(CCOCCS(=O)(=O)CCSCC(=O)NC[C@H]3CC[C@H](C(=O)N[C@@H](Cc4ccc5ccccc5c4)C(=O)NCCCC[C@H](NC(=O)N[C@@H](CCC(=O)O)C(=O)O)C(=O)O)CC3)c(=O)n(CCOCCS(=O)(=O)CCSCC(=O)Nc3ccc(CC4CN(CC(=O)O)CCN(CC(=O)O)CCN4CC(=O)O)cc3)c2=O)CC1)C(=O)O)C(=O)O (stereo partly shown) [^64Cu-NOTA-UNC-PSMA2, metal not drawn]
distribution (in words) (PC3-PSMA model; 24 and 48 h post injection, FIG. 1 panel A): persistent as only the tumor demonstrated prominent compound uptake
tumor uptake (in words) (PC3-PSMA model; mouse, PC3-PSMA model, PET scan image, FIG. 1 panel A): high and persistent tumor uptake
tumor uptake compared to PSMA-617 (PC3-PSMA model; rodent models, times higher than PSMA-617): 2-3 times
SG uptake relative to 64Cu-PSMA-617 [1]: 1/10
tumor uptake compared to PSMA-617 (tumor [2]): 2-3 times

O=C(O)CC[C@H](NC(=O)N[C@@H](CCCCNC(=O)[C@H](Cc1ccc2ccccc2c1)NC(=O)[C@H]1CC[C@H](CNC(=O)CN2CCN(CC(=O)O)CCN(CC(=O)O)CCN(CC(=O)O)CC2)CC1)C(=O)O)C(=O)O.[Lu+3] [^177Lu-PSMA-617]
SG uptake (in words) ([3]; SPECT/CT imaging): prominent SG uptake
glands uptake (in words) ([3]; SPECT/CT, 24 hours post injection, FIG. 2 panel B): high glands uptake
SG uptake (in words) [4]: prominent SG uptake

O=C(O)CC[C@H](NC(=O)N[C@@H](CCCCNC(=O)[C@H](Cc1ccc2ccccc2c1)NC(=O)[C@H]1CC[C@H](CNC(=O)CN2CCN(CC(=O)O)CCN(CC(=O)O)CCN(CC(=O)O)CC2)CC1)C(=O)O)C(=O)O.[Ga+3] [^68Ga-PSMA-617]
tumor uptake profile (in words) (tumor [5]): clean tumor uptake profile

N#CC1CCCN1C(=O)CNC(=O)c1ccnc2ccc(OCCCN3CCN(C(=O)CCOCCOCCNC(=O)NC45CNCCNCC(NC(=O)NCCOCCOCCC(=O)N6CCN(CCCOc7ccc8nccc(C(=O)NCC(=O)N9CCCC9C#N)c8c7)CC6)(CNCCNC4)CNCCNC5)CC3)cc12 (stereo not shown)
uptake into a tumor (in words) (tumor [6]): Uptake of this compound into a tumor
